Assay results reported in article PMC8718007, “Decreased glutamate transport in acivicin resistant Leishmania tarentolae” (PLoS Neglected Tropical Diseases, 2021).

Target: LtaPh_2202300 (AAT22) (Leishmania tarentolae, UniProt A0A640KGB0)
Test: time-dependent uptake of 3H-glutamate, null mutant vs control strain
Assay type: cell-based
Settings: 0.1 mM glutamate in PBS, room temperature; labelled compound

Sequence of LtaPh_2202300 (AAT22) (A0A640KGB0 entry or part of it): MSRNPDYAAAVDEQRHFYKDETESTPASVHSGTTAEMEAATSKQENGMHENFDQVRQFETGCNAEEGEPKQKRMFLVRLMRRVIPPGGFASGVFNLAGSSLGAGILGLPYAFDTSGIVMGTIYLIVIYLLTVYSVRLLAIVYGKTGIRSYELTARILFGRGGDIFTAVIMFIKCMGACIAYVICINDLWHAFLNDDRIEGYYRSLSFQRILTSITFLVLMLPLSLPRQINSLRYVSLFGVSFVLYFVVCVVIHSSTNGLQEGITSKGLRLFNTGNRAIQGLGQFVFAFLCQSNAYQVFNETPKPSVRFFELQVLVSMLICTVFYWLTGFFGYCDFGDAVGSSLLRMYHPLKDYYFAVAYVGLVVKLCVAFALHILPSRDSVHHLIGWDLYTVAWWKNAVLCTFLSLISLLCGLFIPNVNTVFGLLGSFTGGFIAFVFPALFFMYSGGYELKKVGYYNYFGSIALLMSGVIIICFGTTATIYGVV

`N[C@@H](CCC(=O)O)C(=O)O` [glutamate] was tested, and the uptake was “The accumulation of glutamate but not glutamine was greatly diminished in that recombinant strain”.
